# Target: T1, PSMA positive 22Rv1 cells (Homo sapiens, UniProt Q04609)
# T1 construct: endogenous in cells; host or cells: 22Rv1 prostate cancer cells
# Assay: In vitro competitive inhibition cell binding test against I-125-MIP-1072
# Conditions: 1.85 kBq I-125-MIP-1072, 1 hour, nonlinear regression analysis, read-out: IC50 (inhibition of binding between 22Rv1 cells and I-125-MIP-1072)
# Description: To perform in vitro competitive inhibition cell binding test of Ga-NOTA-SCN-GUL, the following experiment was conducted.
# The PSMA positive prostate cancer cell line 22Rv1 was loaded in a 24-well plate at the density of 2×10^5 cells/well, followed by culture in a 37[…] 5% CO2 incubator for 24 hours. Ga-NOTA-SCN-GUL prepared in Example 2 was diluted 2-fold serially with the cell culture medium containing 0.5% bovine serum albumin. The diluted sample was added to the cultured cells (0.5 mL/well), to which 1.85 kBq (S)-2-(3-((S)-1-carboxy-5-((4-iodobenzyl)amino)pentyl)ureido)pentanedioic acid (I-125-MIP-1072) was added (0.5 mL/well). After well mixed, the mixture was cultured in a 37[…] 5% CO2 incubator for 1 hour. The culture medium was discarded, and the cells were washed with fresh medium twice, to which 0.5% sodium dodecyl sulfate (SDS) dissolved in PBS was added (1 mL/well). The mixture was gently shaken for complete dissolving, and then loaded in a 5 mL disposable plastic test tube. Then, the radioactivity was measured with a gamma counter.
# T1 sequence (Q04609 whole entry): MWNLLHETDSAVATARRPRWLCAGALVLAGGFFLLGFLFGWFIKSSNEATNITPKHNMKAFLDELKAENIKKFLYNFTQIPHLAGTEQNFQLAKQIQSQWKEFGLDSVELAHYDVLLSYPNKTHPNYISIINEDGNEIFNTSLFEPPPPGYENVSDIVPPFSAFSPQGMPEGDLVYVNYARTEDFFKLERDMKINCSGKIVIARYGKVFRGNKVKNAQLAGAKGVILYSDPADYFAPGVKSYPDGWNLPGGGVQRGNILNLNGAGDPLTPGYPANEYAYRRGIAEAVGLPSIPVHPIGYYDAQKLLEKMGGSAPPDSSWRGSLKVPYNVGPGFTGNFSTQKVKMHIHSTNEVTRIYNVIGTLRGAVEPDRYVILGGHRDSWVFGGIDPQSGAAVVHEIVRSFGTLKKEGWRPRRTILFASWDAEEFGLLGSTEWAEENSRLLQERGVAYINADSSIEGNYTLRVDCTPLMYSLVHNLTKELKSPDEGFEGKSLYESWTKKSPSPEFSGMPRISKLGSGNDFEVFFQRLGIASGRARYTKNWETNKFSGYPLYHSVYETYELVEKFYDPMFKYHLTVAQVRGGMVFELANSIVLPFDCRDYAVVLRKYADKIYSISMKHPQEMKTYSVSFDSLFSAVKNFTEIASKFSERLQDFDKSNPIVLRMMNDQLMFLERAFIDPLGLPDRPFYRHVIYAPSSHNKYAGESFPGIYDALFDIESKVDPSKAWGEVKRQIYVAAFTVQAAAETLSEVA
structure (smiles),measurement,value
O=C(O)CCC(NC(=O)NC(CCCCNC(=S)Nc1ccc(CC2CN3CCN4CCN2CC(=O)[O][Ga]([O]C(=O)C4)[O]C(=O)C3)cc1)C(=O)O)C(=O)O (stereo not shown) [Example 2],IC50,18.3 nM

# From US11027029B2, “Peptide thiourea derivative, radioisotope labeled compound containing same, and pharmaceutical composition containing same as active ingredient for treating or diagnosing prostate cancer” (CELLBION CO., LTD, priority 2015, dated 2021)
